# Measured values published in patent publication US20250228864A1, “THERAPIES FOR THE TREATMENT OF INFLAMMATORY BOWEL DISEASE” (Gilead Sciences, Inc., priority 2023, published 2025).
# Legend:
# Assay type in all cases: in vivo
# [1] = First-in-human Part A: plasma PK after single ascending doses of Formula (III)
# Procedure: This was a 3-part study to evaluate pharmacokinetics, safety, tolerability, and pharmacodynamics of the Formula (III) compound in healthy volunteers. • To understand the single-dose PK, safety, tolerability, and PD of Formula (III) and its active metabolite, subjects in Part A received a single dose of Formula (III) in the fasting state in a dose-escalating manner. […]
# Formula (III) is a prodrug of Formula (I). Plasma concentrations of Formula (III) metabolite was determined, and PK parameters estimated. Plasma concentrations of Formula (III) and/or its metabolites were determined, and PK explored, as appropriate.
# Concentrations of Formula (III) and the metabolite, in plasma samples were determined using fully validated high-performance liquid chromatography-tandem mass spectrometry (LC-MS/MS) bioanalytical methods. All samples were analyzed in the timeframe supported by frozen stability storage data. […]
# [2] = First-in-human Part B: plasma PK after once-daily dosing of Formula (III) for 14 days
# Text: Part B (MAD Cohorts 6-10) consisted of up to 5 randomized, blinded (Sponsor-unblinded), placebo-controlled, MAD cohorts. Within each cohort 12 unique subjects were randomized 3:1 to receive blinded Formula (III) (N=9) or PTM Formula (III) (N=3). All subjects within each cohort received Formula (III) at the same dosing frequency.
# Subjects enrolled in Part B received either blinded Formula (III) or PTM Formula (III) twice daily or once daily for 14 days. All subjects within each cohort received study drug at the same dosing frequency.
# All study drugs in Part B (except Cohort 10 which will be administered under fasting conditions) were administered in the morning and evening following a standard meal (twice daily dosing), or only in the morning (daily dosing) following a standard meal except for Cohort 10.
# Concentrations of Formula (III) and the metabolite, in plasma samples were determined using fully validated high-performance liquid chromatography-tandem mass spectrometry (LC-MS/MS) bioanalytical methods. All samples were analyzed in the timeframe supported by frozen stability storage data. The assays for Formula (III), and the metabolite were performed using methods validated by QPS, LLC (Newark, DE, USA).
# [3] = test system: IL-10−/− mouse colitis model; test: Example 3: Formula (III) and anti-p40 combination in IL-10−/− mouse colitis model; settings: 21 days; Formula (III) 0.005% in chow, anti-p40 IP; vs no treatment control / either pathway alone
# Procedure: The following experiments were run to evaluate the effects of a combination treatment of Formula (III) in combination with an anti-p40 antibody on the IL-10−/− mouse colitis model compared to the single treatment alone.
# Female IL-10 deficient C57CL/6 mice (aged 12 weeks at study inception) were used in this study. All animal experiments were conducted according to Swiss animal well fare law and approved by the local animal welfare authority of Zurich County (Tierversuchskommission Zürich, Zurich, Switzerland, License No. ZH256-2014).
# Mice were administered either standard chow diet (Harlan Teklad Global Diets 2014, TD2014) or standard chow diet plus 0.005% of Formula (III) in the chow. Formula (III)'s schedule was ad libitum while the anti-p40 antibody was administered via an intraperitoneal injection on day 1 and then every four days for three weeks.
# The compound was added and mixed to the chow powder at 0.125% concentration, anti-p40 antibody was diluted in phosphate buffered saline (2 mg/mL) (anti-p40 antibody is a murine surrogate of ustekinumab) then dosed at either 2 mg/kg (low dose) or 4 mg/kg (high dose) every four days by intraperitoneal injection. […] The mice were then treated for three (3) weeks (21-days). On Day 21, mice were sacrificed, blood and tissue samples were collected for further analysis.
# Experiments were conducted as describe in Experiment 2.
compound,measurement,setting,value
"CCOC(=O)[C@H](Cc1ccc(-n2c(=O)c3ccncc3n(C)c2=O)c2ncccc12)NC(=O)c1c(C)cc(N2CCOC[C@@H]2C(F)(F)F)cc1F (atropisomer, axis not shown) [Formula (III)]",plasma exposures of the prodrug Formula (III) compared with the active metabolite,[1],negligible
same,"metabolite multiple-dose exposure, 200-mg tablet fasting versus 500-mg nonfasting capsule",[2],slightly lower
same,body weight loss,[3],improved body weight loss
